In ChEMBL document CHEMBL1144196, “Carbonic anhydrase activators: kinetic and X-ray crystallographic study for the interaction of D- and L-tryptophan with the mammalian isoforms I-XIV” (Bioorg Med Chem, 2008):

Experiments:
[1] = target: Carbonic anhydrase 2 (Homo sapiens) (UniProt P00918); experiment: Activation of human recombinant CA2 after […] by stopped-flow CO2 hydration assay
[2] = target: Carbonic anhydrase 5A, mitochondrial (Homo sapiens) (UniProt P35218); experiment: Activation of human recombinant CA5A after 15 mins by stopped-flow CO2 hydration assay
Chain of Carbonic anhydrase 5A, mitochondrial (Homo sapiens) (P35218 whole entry): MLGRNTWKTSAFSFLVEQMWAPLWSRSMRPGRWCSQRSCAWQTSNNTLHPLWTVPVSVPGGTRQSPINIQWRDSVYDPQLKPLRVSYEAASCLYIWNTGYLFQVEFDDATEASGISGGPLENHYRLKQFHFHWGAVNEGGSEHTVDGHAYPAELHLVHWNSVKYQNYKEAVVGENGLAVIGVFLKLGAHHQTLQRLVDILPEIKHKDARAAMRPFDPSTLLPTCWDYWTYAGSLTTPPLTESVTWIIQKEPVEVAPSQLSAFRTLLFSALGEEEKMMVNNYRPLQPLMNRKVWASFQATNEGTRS

[3] = target: Carbonic anhydrase 5B, mitochondrial (Homo sapiens) (UniProt Q9Y2D0); experiment: Activation of human recombinant CA5B after 15 mins by stopped-flow CO2 hydration assay
Chain of Carbonic anhydrase 5B, mitochondrial (Homo sapiens) (Q9Y2D0 whole entry): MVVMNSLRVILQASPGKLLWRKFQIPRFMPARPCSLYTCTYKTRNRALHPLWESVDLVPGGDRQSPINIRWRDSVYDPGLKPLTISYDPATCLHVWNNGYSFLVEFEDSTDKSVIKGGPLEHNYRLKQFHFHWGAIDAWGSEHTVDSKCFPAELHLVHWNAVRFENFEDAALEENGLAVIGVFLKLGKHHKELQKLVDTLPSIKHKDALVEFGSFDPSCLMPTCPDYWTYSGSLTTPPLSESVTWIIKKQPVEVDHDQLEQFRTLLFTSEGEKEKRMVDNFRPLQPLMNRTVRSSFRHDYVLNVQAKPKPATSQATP

[4] = target: Carbonic anhydrase 7 (Homo sapiens) (UniProt P43166); experiment: Activation of human recombinant CA7 after 15 mins by stopped-flow CO2 hydration assay
Chain of Carbonic anhydrase 7 (Homo sapiens) (P43166 whole entry): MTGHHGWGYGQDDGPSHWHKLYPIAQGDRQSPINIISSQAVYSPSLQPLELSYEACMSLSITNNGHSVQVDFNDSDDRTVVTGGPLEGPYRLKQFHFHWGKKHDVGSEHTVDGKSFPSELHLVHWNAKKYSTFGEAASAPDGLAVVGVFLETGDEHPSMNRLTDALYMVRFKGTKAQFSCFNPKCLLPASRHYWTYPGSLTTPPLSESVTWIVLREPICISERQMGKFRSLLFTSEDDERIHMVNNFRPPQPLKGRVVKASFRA

[5] = target: Carbonic anhydrase 9 (Homo sapiens) (UniProt Q16790); experiment: Activation of human recombinant CA9 after 15 mins by stopped-flow CO2 hydration assay
[6] = target: Carbonic anhydrase 12 (Homo sapiens) (UniProt O43570); experiment: Activation of human recombinant CA12 after 15 mins by stopped-flow CO2 hydration assay
Chain of Carbonic anhydrase 12 (Homo sapiens) (O43570 whole entry): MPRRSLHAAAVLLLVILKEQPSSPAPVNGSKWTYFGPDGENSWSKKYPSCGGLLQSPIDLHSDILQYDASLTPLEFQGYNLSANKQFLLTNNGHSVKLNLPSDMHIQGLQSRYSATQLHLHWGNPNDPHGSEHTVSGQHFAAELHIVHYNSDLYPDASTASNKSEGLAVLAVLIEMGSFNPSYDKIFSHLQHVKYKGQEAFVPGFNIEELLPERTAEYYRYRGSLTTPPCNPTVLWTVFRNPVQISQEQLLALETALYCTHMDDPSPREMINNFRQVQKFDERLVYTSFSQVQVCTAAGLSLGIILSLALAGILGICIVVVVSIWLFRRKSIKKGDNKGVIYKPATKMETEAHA

[7] = target: Carbonic anhydrase 13 (Mus musculus) (UniProt Q9D6N1); experiment: Activation of mouse recombinant CA13 after 15 mins by stopped-flow CO2 hydration assay
Chain of Carbonic anhydrase 13 (Mus musculus) (Q9D6N1 whole entry, looked up): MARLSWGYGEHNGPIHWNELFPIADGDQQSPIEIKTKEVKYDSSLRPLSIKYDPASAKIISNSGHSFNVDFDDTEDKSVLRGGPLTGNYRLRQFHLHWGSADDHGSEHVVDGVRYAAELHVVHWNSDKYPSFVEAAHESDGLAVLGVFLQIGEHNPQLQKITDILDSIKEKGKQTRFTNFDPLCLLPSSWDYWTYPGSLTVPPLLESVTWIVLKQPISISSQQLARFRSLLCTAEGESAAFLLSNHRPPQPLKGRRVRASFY

[8] = target: Carbonic anhydrase 14 (Homo sapiens) (UniProt Q9ULX7); experiment: Activation of human recombinant CA14 after 15 mins by stopped-flow CO2 hydration assay
Chain of Carbonic anhydrase 14 (Homo sapiens) (Q9ULX7 whole entry): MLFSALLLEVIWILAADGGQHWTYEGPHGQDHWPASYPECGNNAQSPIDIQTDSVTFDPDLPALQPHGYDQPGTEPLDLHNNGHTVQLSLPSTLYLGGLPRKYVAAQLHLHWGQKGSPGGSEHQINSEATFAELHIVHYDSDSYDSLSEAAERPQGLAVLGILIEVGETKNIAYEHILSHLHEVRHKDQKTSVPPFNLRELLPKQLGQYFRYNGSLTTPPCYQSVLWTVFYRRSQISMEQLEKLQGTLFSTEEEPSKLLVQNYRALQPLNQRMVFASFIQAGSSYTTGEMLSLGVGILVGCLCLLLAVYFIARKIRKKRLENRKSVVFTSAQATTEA

SMILES: N[C@@H](Cc1c[nH]c2ccccc12)C(=O)O
- Ka [1]: 1.13 µM
- Ka [2]: 1.13 µM
- Ka [3]: 0.89 µM
- Ka [4]: 57 µM
- Ka [5]: 37 µM
- Ka [6]: 26 µM
- Ka [7]: 16 µM
- Ka [8]: 16 µM

SMILES: CNC[C@@H](O)c1ccc(O)c(O)c1
- Ka [2]: 63 µM
- Ka [4]: 60 µM
- Ka [5]: 0.87 µM
- Ka [6]: 0.41 µM
- Ka [8]: 36 µM

SMILES: N[C@H](Cc1c[nH]c2ccccc12)C(=O)O
- Ka [1]: 0.37 µM
- Ka [2]: 1.24 µM
- Ka [3]: 1.35 µM
- Ka [4]: 39 µM
- Ka [5]: 43 µM
- Ka [6]: 28 µM
- Ka [7]: 0.81 µM
- Ka [8]: 18 µM
